Data published in US8835390B2, “Modulation of osteoclast differentiation” (Osteobuild Ltd., priority 2005, dated 2014).

What was measured:
[1] = test system: osteoclast lineage cells (osteoclasts and their mononuclear precursors); experiment: RANKL-induced osteoclast differentiation (osteoclast number by TRAP staining, cell size by surface area measurement); type: cell-based, mouse; settings: for osteoclast lineage cells size: phloretin 50 μM added for the last day, mean ± SEM of at least 50 cells
Description: (§1) Bone marrow cells (BMMs) were prepared from the long bones of 7-9 week old BALB/c male mice. Primary BMMs were prepared by flushing mouse femurs and tibias with α-MEM. Cells were cultured in Petri dishes, in complete α-MEM, supplemented with 10% CMG14-12 culture supernatant, which served as a source of M-CSF. After 3 days of culture, plates were washed 3 to 4 times with PBS to remove non-adherent cells. Adherent cells were removed with trypsin-EDTA solution, centrifuged and resuspended in a fresh medium. Murine macrophage-like RAW264.7 cell line was maintained in RPMI 1640 medium supplemented with 10% fetal calf serum (FCS) in the presence of antibiotics (penicillin and streptomycin). Cells were cultured at 37° C. incubator in a humidified atmosphere with 5% CO2, and media were changed every other day. BMMs (7×10^3/well in α-MEM containing 10% FCS and supernatant from CMG14-12 [1:20]) or RAW264.7 cells (3×10^3/well in RPMI-1640 containing 10% FCS) were incubated in 96-well plates (0.2 ml/well). To induce cells to differentiate into osteoclasts, bacterially-produced recombinant RANKL was added at the time of plating. On day 3, medium was changed and on day 5, osteoclast formation was evaluated (see below). A commercial kit (Cat. No. 387-A, Sigma) was used according to the manufacturer instructions. TRAP-positive cells containing three or more nuclei were scored as osteoclasts. The surface area occupied by osteoclasts and their precursors was quantified using a computerized image analysis system (Olympus BX50, DP50, software: ImagePro Plus, Media Cybernetics). In the following assay the significance of the activity of AQP-9 to osteoclast differentiation was determined.

[2] = test system: bone marrow cells (BMMs); experiment: Methylene blue uptake; type: cell-based, mouse; settings: FIG. 5
Description: as §1, with “To induce cells to differentiate into osteoclasts, bacterially-produced recombinant RANKL was added at the time of plating.” left out, “below).” for “below). A commercial kit (Cat. No. 387-A, Sigma) was used according to the manufacturer instructions. TRAP-positive cells containing three or more nuclei were scored as osteoclasts. The surface area occupied by osteoclasts and their precursors was quantified using a computerized image analysis system (Olympus BX50, DP50, software: ImagePro Plus, Media Cybernetics). In the following assay the significance of the activity of AQP-9 to osteoclast differentiation was determined.”
Cells were seeded as for the osteoclast differentiation assay (see above). Monolayers were fixed and methylene blue uptake was measured as described [Goldman, R., and Bar-Shavit, Z. (1979) J. Natl. Cancer Inst. […]

Question: With `O=C(CCc1ccc(O)cc1)c1c(O)cc(O)cc1O` [Phloretin, 2′,4′,6′-Trihydroxy-3-(4-hydroxyphenyl)-propiophenone] as the compound, how does the “osteoclast lineage cells size” value ([1]; +RANKL for 5 days) read?
Answer: 23722 ± 4351 μm^2

Question: What about the “effect on osteoclast number” value ([1]; +RANKL for 5 days, phloretin added for the last day, FIG. 4A-4D) of the same compound?
Answer: dramatic reduction

Question: And the “effect on osteoclast size” value ([1]; +RANKL for 5 days, phloretin added for the last day, FIG. 4A-4D, Table 3)?
Answer: dramatic reduction

Question: And the “effect on number of the mononuclear precursors” value ([1]; cells not treated with RANKL)?
Answer: did not exhibit a significant effect

Question: And the “effect on size of the mononuclear precursors” value ([1]; cells not treated with RANKL)?
Answer: did not exhibit a significant effect

Question: What about the “osteoclast lineage cells size” value ([1]; −RANKL (mononuclear precursors)) of the same compound?
Answer: 267 ± 6 μm^2

Question: And the “effect on methylene blue uptake” value ([2]; RANKL-treated cells)?
Answer: marked inhibition

Question: What about the “effect on methylene blue uptake” value ([2]; mononuclear precursors (BMMs grown in the absence of RANKL)) of the same compound?
Answer: No effect
